Source: patent publication US20260035385A1, “BENZO NITROGEN-CONTAINING HETEROAROMATIC RING DERIVATIVE AND USE THEREOF IN MEDICINE” (Xizang Haisco Pharmaceutical Co., Ltd., priority 2021, published 2026)

Tests used:
[1] = test system: complement alternative pathway; assay: Biological Test Example 2: complement alternative pathway inhibition, IBL alternative pathway kit, serum from healthy volunteers; format: biochemical, human; conditions: LPS-coated plate, 37 °C 1 h, read-out: IC50 for inhibiting alternative pathway
Procedure: The inhibitory effect of the compounds on the complement alternative pathway was detected using the IBL alternative pathway kit (COMPL AP330 RUO). Serum from healthy volunteers was collected and 1 portion was diluted with a buffer of 20 mM EDTA in gelatin (0.15 mM CaCl2, 141 mM NaCl, 4.5 mM MgCl2, 4.2 mM HEPES, and 0.1% gelatin at pH 7.4) to 50% (v/v), and 1 portion was diluted to 50% (v/v) with a buffer of 20 mM EGTA in gelatin. The compounds were prepared in DMSO to a working solution 100 times the final concentration. Before use, 50% of the above serum was diluted 1/18 with the AP diluent in the kit. 1 part of the compound working solution (v/v) or DMSO (positive control PC) was added to 99 parts of the diluted serum containing EGTA for pretreatment for 30 min, and 1 part of DMSO (v/v) was added to 99 parts of the diluted serum containing EDTA, as negative control (NC). The serum pretreated with the above compounds (or DMSO) was added at […] to the LPS-coated 96-well plate, incubated at 37° C. for 1 h, and the plate was washed 3 times with washing solution in the kit; the conjugated chromogenic substrate was added according to the instruction in the kit, and the absorbance was read at 405 nm with a microplate reader. The inhibitory activity of the compounds on alternative pathway was calculated using the following formula.
OD^CPD was the OD value when the inhibitor was added, OD^NC was the OD value of the negative control, and OD^PC was the OD value of the positive control.
Graphpad was used to perform nonlinear regression on the final concentrations and inhibition rates of the compounds to obtain the IC50 of the compounds for inhibiting the alternative pathway.

FB = FB (Homo sapiens, UniProt P00751); assay: biochemical
Chain of FB (P00751 260-764 limits assumed): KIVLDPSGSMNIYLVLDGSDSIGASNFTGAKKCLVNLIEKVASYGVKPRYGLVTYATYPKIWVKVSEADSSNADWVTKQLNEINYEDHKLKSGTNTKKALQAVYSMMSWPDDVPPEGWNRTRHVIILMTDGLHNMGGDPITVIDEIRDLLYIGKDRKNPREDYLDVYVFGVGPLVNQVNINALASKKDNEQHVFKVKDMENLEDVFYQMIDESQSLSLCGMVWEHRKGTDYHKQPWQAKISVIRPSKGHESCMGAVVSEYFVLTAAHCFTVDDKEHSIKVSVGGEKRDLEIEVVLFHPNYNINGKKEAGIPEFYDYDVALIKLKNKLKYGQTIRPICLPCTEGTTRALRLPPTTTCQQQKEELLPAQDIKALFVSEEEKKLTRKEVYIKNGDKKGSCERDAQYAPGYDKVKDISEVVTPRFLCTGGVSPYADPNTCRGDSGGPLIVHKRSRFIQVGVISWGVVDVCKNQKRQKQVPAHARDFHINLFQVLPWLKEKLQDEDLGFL
Chain of FB (Q91132 23-649 partner limits assumed): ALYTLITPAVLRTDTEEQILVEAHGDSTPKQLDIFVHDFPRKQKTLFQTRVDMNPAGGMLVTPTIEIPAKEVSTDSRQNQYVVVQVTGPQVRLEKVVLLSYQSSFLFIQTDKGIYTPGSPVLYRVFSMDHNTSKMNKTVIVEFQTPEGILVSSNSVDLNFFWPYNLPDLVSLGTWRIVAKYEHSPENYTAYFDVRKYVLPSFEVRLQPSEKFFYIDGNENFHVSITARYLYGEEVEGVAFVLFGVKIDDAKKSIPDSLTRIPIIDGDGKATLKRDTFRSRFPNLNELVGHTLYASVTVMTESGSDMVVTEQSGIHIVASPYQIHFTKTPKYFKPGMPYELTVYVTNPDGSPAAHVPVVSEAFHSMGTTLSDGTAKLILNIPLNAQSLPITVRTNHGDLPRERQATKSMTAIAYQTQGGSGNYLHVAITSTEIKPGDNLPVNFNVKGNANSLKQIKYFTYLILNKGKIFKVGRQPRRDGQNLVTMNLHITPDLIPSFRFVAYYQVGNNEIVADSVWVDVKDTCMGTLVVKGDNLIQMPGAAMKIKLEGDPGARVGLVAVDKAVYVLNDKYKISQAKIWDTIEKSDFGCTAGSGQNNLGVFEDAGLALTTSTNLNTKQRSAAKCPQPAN
Chain of FB (Q91132 733-984 partner limits assumed): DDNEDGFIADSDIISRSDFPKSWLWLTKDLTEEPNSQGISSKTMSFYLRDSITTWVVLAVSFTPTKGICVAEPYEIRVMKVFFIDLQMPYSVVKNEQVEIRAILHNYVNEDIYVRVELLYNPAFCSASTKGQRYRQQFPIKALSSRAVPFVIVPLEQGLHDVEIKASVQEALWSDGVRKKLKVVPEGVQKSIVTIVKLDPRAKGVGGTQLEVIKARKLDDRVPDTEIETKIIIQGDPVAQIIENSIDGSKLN
Chain of FB (Q91132 1264-1642 partner limits assumed): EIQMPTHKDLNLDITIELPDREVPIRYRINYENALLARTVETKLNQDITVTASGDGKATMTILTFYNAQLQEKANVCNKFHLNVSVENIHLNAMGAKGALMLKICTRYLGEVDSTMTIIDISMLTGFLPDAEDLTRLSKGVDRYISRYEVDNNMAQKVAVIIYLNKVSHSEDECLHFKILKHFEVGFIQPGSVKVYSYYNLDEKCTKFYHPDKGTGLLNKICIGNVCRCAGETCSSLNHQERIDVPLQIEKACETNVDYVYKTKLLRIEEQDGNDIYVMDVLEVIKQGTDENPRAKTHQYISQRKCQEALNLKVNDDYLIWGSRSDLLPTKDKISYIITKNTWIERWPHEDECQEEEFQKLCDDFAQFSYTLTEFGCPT
Procedure: CVF (1 μM), FB (1 μM) and FD (300 nM) were incubated in Assay buffer (pH=7.4, 10 mM MgCl2, 0.05% (m/v), CHAPS) for 3 h at room temperature, so that all FB was cleaved into Baby FD and CVF:Bb complex was generated. SDS-PAGE analysis confirmed that FB was completely hydrolyzed, that is, the concentration of the generated CVF:Bb complex was 300 nM. The CVF:Bb complex was diluted to a concentration of 5 nM using Assay buffer and preincubated with different concentrations of the compounds in assay buffer for 1 h at room temperature. C3 was added to a final concentration of 1 μM to start the enzymatic reaction. After reacting at room temperature for 1 h, protease inhibitor mixture (Roche Complete Inhibitor Tablets) was added to stop the enzyme reaction. Human C3a ELISA kit (Hycult HK354-01) was used to determine the generation of C3a according to the instruction in the kit. The FB activity inhibition rate was plotted against the inhibitor concentration, and graphpad nonlinear regression was used to calculate the IC50 value.

C3a levels in mice = assay: Biological Test Example 4: LPS mouse model, plasma C3a level; format: in vivo; conditions: compound given 3.5 h after LPS, plasma at 7.5 h
Procedure: Mice were intravenously given 0.5 mg/ml LPS solution at 100 μL/mouse to create a model, and the naive group was given physiological saline. Mice were given the compounds 3.5 h after injection of physiological saline/LPS solution, and the naive group and model group were given vehicle (0.5% MC+0.5% Tween 80). 7.5 h after the mice in each group were injected with physiological saline/LPS, blood was collected from the orbit and the plasma was separated. The plasma C3a level was detected using mouse C3a ELISA kit (NOVUS/NBP2-70037), and the inhibition rate of C3a was calculated. The formula is as follows: […]
Among them: Ct, C3a level after administration; Cnaive, C3a level of naive group; Cmodel, C3a level of model group.

[2] = Pharmacokinetic test of dogs; format: in vivo; conditions: male, beagle, dog, plasma, po, i.g. (5 mg/kg)
Procedure: (§1) Test objective: In this experiment, a single dose of test compounds was administered to beagle dogs intravenously and intragastrically, and the concentrations of the test compounds in plasma of the beagle dogs were measured to evaluate pharmacokinetic characteristics of the test compounds in the beagle dogs.
Experimental animals: Male beagle dogs, 8-11 kg, 1-3 years old, 6 dogs/compound. purchased from Beijing Marshall Biotechnology Co. Ltd.
Experimental method: on the day of the test, 6 beagle dogs were randomly grouped according to their body weights. The animals were fasted with water available for 14 to 18 hours one day before the administration of a test compound, and were fed 4 hours after the administration.
Sampling: Before and after the administration, 1.0 mL of blood was taken from the jugular veins or limb veins, and placed in an EDTAK2 centrifuge tube. Centrifugation was carried out at 5000 rpm at 4° C. for 10 min, and the plasma was collected.
(§2) Time points for plasma collection in IV&PO group: 0, 5 min, 15 min, 30 min, 1 h, 2 h, 4 h, 6 h, 8h, 10 h, 12h, and 24 h.
(§3) Before analysis and detection, all samples were stored at −60° C. The samples were analyzed quantitatively by LC-MS/MS.

[3] = Pharmacokinetic test in rats; format: in vivo, SD rats; conditions: for maximum plasma concentration in rats / oral bioavailability in rats / time to peak: compared with LNP023, in words; for bioavailability / Cmax / Tmax / half-life / AUC(0-t): male, SD, rat, plasma, po, i.g. (10 mg/kg); for bioavailability / Cmax / Tmax / half-life / AUC(0-t) / time to peak: rats; for AUC(0-t): read-out: AUC0-24 h
Procedure: Test objective: In this experiment, a single dose of each test compound was administered to SD rats intravenously and intragastrically, and the concentrations of the test compounds in plasma of rats were measured to evaluate the pharmacokinetic characteristics of the test compounds in rats.
Experimental animals: male SD rats, 200-250 g, 6-8 weeks old, 6 rats/compound, purchased from Chengdu Ddossy Experimental Animals Co., Ltd.
Experimental method: on the day of the test, 6 SD rats were randomly grouped according to their body weight. The animals were fasted with water available for 12 to 14 hours one day before the administration of a test compound, and were fed 4 hours after the administration.
Sampling: Before and after the administration, 0.15 mL of blood sample was drawn from the orbit under isoflurane anesthesia, and placed in an EDTAK2 centrifuge tube. Centrifugation was carried out at 5000 rpm at 4° C. for 10 min, and the plasma was collected.
Time points for plasma collection in IV&PO group: 0, 5 min, 15 min, 30 min, 1 h, 2 h, 4 h, 6 h, 8 h, and 24 h.
as §3

Caco2 permeability test = format: in vitro ADME; conditions: human, pH 7.4, Caco-2 monolayer, 2 μM, 2 h
Procedure: (§4) The experiment used a monolayer of Caco-2 cells incubated in triplicate in a 96-well Transwell plate. […] Acetonitrile containing internal standard was then added to precipitate the protein. […] The integrity of the cell monolayer after 2 h of incubation was assessed by leakage of Lucifer Yellow.

Caco-2 cells = assay: Caco2 permeability test; format: in vitro ADME; conditions: Caco2, compared with the trifluoroacetate of LNP023, in words
Procedure: as §4

[4] = Pharmacokinetic experiment in monkeys; format: in vivo, cynomolgus monkeys; conditions: for bioavailability in monkeys / oral exposure in monkeys: compared with the trifluoroacetate of LNP023, in words; for bioavailability / AUC(0-t): male, cynomolgus monkey, plasma, po, monkeys, i.g. (5 mg/kg)
Procedure: as §1, with “to cynomolgus monkeys” for “to beagle dogs”, “the monkeys” for “the beagle dogs”, “the monkeys.” for “the beagle dogs.”
Experimental animals: Male cynomolgus monkeys, 3-5 kg, 3-6 years old, 6 monkeys/compound. Purchased from Suzhou Xishan Biotechnology Inc.
Experimental method: on the day of the test, 6 monkeys were randomly grouped according to their body weights. The animals were fasted with water available for 14 to 18 hours one day before the administration of a test compound, and were fed 4 hours after the administration.
Sampling: before and after the administration, 1.0 mL of blood was taken from the limb veins, and placed in an EDTAK2 centrifuge tube. Centrifugation was carried out at 5000 rpm at 4° C. for 10 min, and the plasma was collected.
as §2, §3

Compound | IC50 [1] [nM] | IC50 (FB) [nM] | bioavailability [2] [%] | AUC(0-t) [2] [ng·h/mL] | half-life [2] [h] | maximum plasma concentration in rats [3] | oral bioavailability in rats [3] | bioavailability [3] [%] | Cmax [3] [ng/mL] | half-life [3] [h] | AUC(0-t) [3] [ng·h/mL] | Papp A→B at 2 h, 2 μM (Caco2 permeability test) [×10⁻⁶ cm/s] | Papp B→A at 2 h, 2 μM (Caco2 permeability test) [×10⁻⁶ cm/s] | permeability (Caco-2 cells) | further results
COCC1CCN(Cc2c(OC)cc(C)c3[nH]ccc23)[C@H](c2ccc(C(=O)O)cc2)C1 (single isomer, unassigned) [Trifluoroacetate of compound 1-a] | < 200 | < 500 |  |  |  |  |  |  |  |  |  |  |  |  | 
COc1cc(C)c2[nH]ccc2c1CN1CCC2(CCCO2)C[C@H]1c1ccc(C(=O)O)cc1 (single isomer, unassigned) [Trifluoroacetate of compound 2-b (diastereomer 2)] | < 200 | < 500 |  |  |  |  |  |  |  |  |  |  |  |  | Inhibition rate of C3a levels in mice (C3a levels in mice; Dosage 30 mg/kg): 35.04%; Inhibition rate of C3a levels in mice (C3a levels in mice; Dosage 60 mg/kg): 73.12%
[2H]C([2H])([2H])Oc1cc(C)c2[nH]ccc2c1CN1CCC2(CCCO2)C[C@H]1c1ccc(C(=O)O)cc1 (single isomer, unassigned) [Trifluoroacetate of compound 6] | < 200 | < 500 |  |  |  |  |  |  |  |  |  |  |  |  | 
COc1cc(C)c2[nH]ccc2c1CN1CC[C@H](OCC2CC2)C[C@H]1c1ccc(C(=O)O)cc1 [Compound 4, 4-((2S,4S)-4-(cyclopropylmethoxy)-1-((5-methoxy-7-methyl-1H-indol-4-yl)methyl)piperidin-2-yl)benzoic acid] | < 200 | < 500 |  |  |  |  |  |  |  |  |  |  |  |  | 
C#C[C@H]1CCN(Cc2c(OC)cc(C)c3[nH]ccc23)[C@H](c2ccc(C(=O)O)cc2)C1 [Compound 10 (diastereomer 1), 4-((2S)-4-ethynyl-1-((5-methoxy-7-methyl-1H-indol-4-yl)methyl)piperidin-2-yl)benzoic acid] | < 200 |  | 56.2 | 25300 | 8.89 | higher | higher | 57.8 | 2240 | 4.15 | 7920 | 2.62 | 12.1 | better | Tmax [3]: 0.333 h; time to peak [3]: shorter; efflux ratio at 2 h, 2 μM (Caco2 permeability test): 4.62; efflux ratio (Caco-2 cells): lower
C#CCC1CCN(Cc2c(OC)cc(C)c3[nH]ccc23)[C@H](c2ccc(C(=O)O)cc2)C1 (stereo partly drawn) [Compound 13, 4-((2S)-1-((5-methoxy-7-methyl-1H-indol-4-yl)methyl)-4-(prop-2-yn-1-yl)piperidin-2-yl)benzoic acid] | < 200 |  | > 60 | 36100 | 7.26 | higher | higher | 65.5 | 1600 | 3.41 | 6030 | 2.55 | 20.9 | better | Tmax [3]: 0.583 h; time to peak [3]: shorter; efflux ratio at 2 h, 2 μM (Caco2 permeability test): 8.18; efflux ratio (Caco-2 cells): lower; bioavailability in monkeys [4]: higher; oral exposure in monkeys [4]: higher; bioavailability [4]: 70.5 ± 4.5%; AUC(0-t) [4]: 16600 ± 1070 ng·h/mL
[2H]C([2H])([2H])Oc1cc(C)c2[nH]ccc2c1CN1CC[C@H](C2CC2)C[C@H]1c1ccc(C(=O)O)cc1 [Trifluoroacetate of compound 7 (diastereomer 1), 4-((2S)-4-cyclopropyl-1-((5-(methoxy-d3)-7-methyl-1H-indol-4-yl)methyl)piperidin-2-yl)benzoic acid] | < 200 |  | 75.5 | 45400 | 15.1 | higher | higher | 72.1 | 1130 | 3.2 | 9160 | 1.77 | 19.4 | better | bioavailability in monkeys [4]: higher; oral exposure in monkeys [4]: higher; bioavailability [4]: 98.3 ± 7.5%; AUC(0-t) [4]: 48300 ± 3660 ng·h/mL
